Results on 2 compounds are retold here after patent US20260069581A1, “METHODS AND COMPOSITIONS FOR CANCER THERAPY” (OHIO STATE INNOVATION FOUNDATION, priority 2020, published 2026).

One assay concerns IDH2-WT TF-1 cells. Description: Phospho-H2A.X (pS139) flow cytometry. The format is cell-based. Conditions: IDH2-WT TF-1, 48 hours, 0.8 μM AR-42, 0.1 μM KPT-9274. The protocol:
(§1) Thereafter, cells were fixed, permeabilized and stained with BV421 mouse anti-H2A.X (pS139) (Clone N1-431). Stained cells were analyzed by flow cytometry. Results are shown as mean±SEM of duplicates. *p<0.05. N.S.: not significant. […] Results are shown as mean±SEM of duplicates. *p<0.05. […] MOLM13 cells were treated with vehicle control, 0.4 μM or 0.8 μM AR-42 alone, 0.1 μM or 0.25 μM KPT-2974 alone and drug combination for 24 hours before being subject to Western blotting analysis of HR, NHEJ and ATM markers. GAPDH served as loading control. Results are representative of two independent experiments. In the FIG. the treatment concentrations, protein detected in the given Western blot, and molecular weight of the protein detected are as shown in the figure. […] Scrambled or shHDAC8-transduced MOLM13 cells were treated with vehicle, 0.1 μM or 0.25 μM KPT-2974 before being subject to immunoblotting analysis of DNA repair targets. GAPDH serves as loading control. Results are representative of two independent experiments. In the FIG. the treatment concentrations, protein detected in the given Western blot, and molecular weight of the protein detected are as shown in the figure. […] PAPR1 was immunoprecipitated and mono-ADP-ribosylation was detected by western blotting. Results are representative of two independent experiments. […]

Another assay has as its system MOLM13 cells. Put plainly: Western blotting of HR, NHEJ and ATM markers. Format: cell-based, human. The protocol: as §1
In general terms: A western blot detects proteins with antibodies after separation by electrophoresis.

The next assay relates to leukemia stem cells. The following applies: caspase-dependent apoptosis, Ref. 28; cited from earlier work.
In assay [1] the test system is MOLM13 and Kasumi-1 cell lines. Put plainly: Annexin/PI flow cytometry apoptosis of shRNA-stable cells treated with KPT-9274. The following applies: KPT-9274 at sublethal IC20 dose, 48 hour. The format is cell-based, human. The source says:
FIGS. 2A-2M show show representative data for genetic depletion of HDAC8 or SIRT6 increases vulnerability of AML cell lines to KPT-9274 treatment. FIGS. 2A-2D show data for knockout efficiency of CDS- and 3′UTR-targeting shRNAs in MOLM13 and Kasumi-1 cells as assessed with Western blotting (FIGS. 2A, 2D) with GAPDH as a loading control. Densitometric quantification of protein band intensity is shown (n=2) in FIGS. 2B, 2E. FIGS. 2E-2H show representative data for depletion of HDAC8 or SIRT6 (as indicated in graphs) and sensitization of AML cell lines to KPT-9274 treatment. Dose-response curves of shRNA-stable MOLM13 and Kasumi-1 cells for 24-hour and 48-hour treatments are plotted. Cell viability was measured with MTS. […] Scrambled or gene-targeting shRNA-stable MOLM13 or Kasumi-1 cells were treated with IC20 dose of KPT-9274 for 48 hour and stained with Annexin/PI for flow cytometry analysis. Data are shown as mean±SEM of % population from duplicates. FIGS. 2K-2L show representative data that KPT-9274 attenuates AML self-renewal and induces myeloid differentiation in HDAC8 or SIRT6-depleted cells. Quantification of the number of colonies formed by shRNA-stable Kasumi-1 and MOLM13 cells in the presence or absence of KPT-9274 in CFU assays. Indicated number of cells were seeded into Methocult and colonies were counted and replated by a double-blind approach after 7 days. […]

In another assay the test system is PARP1. Put plainly: co-IP and western blotting of PARP1 mono-ADP-ribosylation. The format is cell-based. Conditions: eradicated by knockdown of SIRT6. As to the method:
as §1, with “blotting.” for “blotting. Results are representative of two independent experiments.”
To elucidate the mechanism of the synergism between shSIRT6 and KPT-9274, the accumulation of phosph-H2A.X was measured. […]

In the case of `CC(C)[C@H](C(=O)Nc1ccc(C(=O)NO)cc1)c1ccccc1` [AR-42, (S)—N-Hydroxy-4-(3-methyl-2-phenylbutanamido)benzamide], the “fluorescence intensity of phospho-H2A.X staining” value in the assay with IDH2-WT TF-1 cells was “slightly increased”. The “levels of HR components CtIP, Rad51, phosphorylated BRCA1 and phosphorylated ATM” value with MOLM13 cells (0.4 μM and 0.8 μM AR-42, monotherapy or with KPT-9274, 24 hours) is on record as “significantly reduced”. Further, in the assay on leukemia stem cells, the “death of leukemia stem cells” value was “induce death of leukemia stem cells”.

With `Nc1ccc(/C=C/C(=O)NCc2cc3cc(-c4ccc(C(=O)N5CCC(F)(F)CC5)cc4)cc(-c4ccc(F)cc4)c3o2)cn1` [KPT-9274, (E)-3-(6-aminopyridin-3-yl)-N-[[5-[4-(4,4-difluoropiperidine-1-carbonyl)phenyl]-7-(4-fluorophenyl)-1-benzofuran-2-yl]methyl]prop-2-enamide], the “percentage of apoptotic cells” value in assay [1] (HDAC8 depletion) is “significantly increase”. Further, in assay [1] (SIRT6 depletion), the “apoptosis of AML cells” value is “enhance apoptosis”. The “fluorescence intensity of phospho-H2A.X staining” value in the assay with IDH2-WT TF-1 cells is reported as “slightly increased”. Further, the “abundance of D-NHEJ and ATM pathway mediators” value in the assay with MOLM13 cells (shHDAC8-transduced MOLM13, 0.1 μM or 0.25 μM KPT-9274) is “synergistically downregulated”. The “mono-ADP-ribosylation of PARP1” value in the assay with PARP1 is “enhanced”.
